Test [1] in a line: Growth inhibition of human HCT116 cells after 96 hrs by MTS assay. It counts as functional. Conditions: HCT-116, 96 h. (Tetrazolium dyes change colour on reduction, which living cells bring about.)
Test [2] deals with T1, Aurora kinase B (Homo sapiens, UniProt Q96GD4).
The target of the next test is Aurora kinase C (Homo sapiens, UniProt Q9UQB9). In words: Inhibition of human recombinant full-length N-terminal GST-tagged Aurora C (1 to 275 end residues) expressed in baculovirus expression system using GLRRASLG-NH2 as substrate after 20 mins in presence of [gamma-33P]-ATP by liquid scintillation counting.
The target in test [3] is Tyrosine-protein kinase ABL1 (Homo sapiens) (UniProt P00519). Nature of the test: Inhibition of human recombinant full-length His-tagged ABL1 cytoplasmic domain expressed in baculovirus expression system at 1 uM.
Test [4] has as its target T1, Aurora kinase B. Nature of the test: Inhibition of human recombinant full-length His-tagged Aurora B expressed in baculovirus expression system at 1 uM.
The target of test [5] is Aurora kinase C (Homo sapiens) (UniProt Q9UQB9). In words: Inhibition of human recombinant full-length GST-tagged Aurora C expressed in baculovirus expression system at 1 uM.
The target in test [6] is Cyclin-dependent kinase 1 (Homo sapiens) (UniProt P06493). In words: Inhibition of CDK1 (unknown origin) at 1 uM.
Test [7] addresses Cyclin-dependent kinase 2 (Homo sapiens) (UniProt P24941). Nature of the test: Inhibition of CDK2 (unknown origin) at 1 uM.
In test [8] the target is Serine/threonine-protein kinase Chk1 (Homo sapiens) (UniProt O14757). Nature of the test: Inhibition of human recombinant full-length His-tagged CHK1 expressed in baculovirus expression system at 1 uM.
For test [9], the target named is Serine/threonine-protein kinase Chk2 (Homo sapiens) (UniProt O96017). Nature of the test: Inhibition of human recombinant full-length His-tagged CHK2 expressed in baculovirus expression system at 1 uM.
Test [10] deals with Vascular endothelial growth factor receptor 1 (Homo sapiens, UniProt P17948). Nature of the test: Inhibition of human recombinant GST-tagged FLT1 cytoplasmic domain (781 to 1338 residues) expressed in baculovirus expression system at 1 uM.
The target in test [11] is Receptor-type tyrosine-protein kinase FLT3 (Homo sapiens) (UniProt P36888). Nature of the test: Inhibition of human recombinant His-tagged FLT3 cytoplasmic domain (564 to 958 residues) expressed in baculovirus expression system at 1 uM.
For test [12], the target named is Vascular endothelial growth factor receptor 3 (Homo sapiens, UniProt P35916). In words: Inhibition of human recombinant GST-tagged FLT4 cytoplasmic domain (800 to 1297 residues) expressed in baculovirus expression system at 1 uM.
The target of test [13] is Tyrosine-protein kinase JAK1 (Homo sapiens) (UniProt P23458). Nature of the test: Inhibition of human recombinant GST-tagged JAK1 cytoplasmic domain (866 to 1154 residues) expressed in baculovirus expression system at 1 uM.
Test [14] addresses Vascular endothelial growth factor receptor 2 (Homo sapiens, UniProt P35968). Nature of the test: Inhibition of human recombinant His-tagged KDR cytoplasmic domain (789 to 1356 residues) expressed in baculovirus expression system at 1 uM.
Test [15] deals with Mast/stem cell growth factor receptor Kit (Homo sapiens) (UniProt P10721). Nature of the test: Inhibition of human recombinant His-tagged KIT cytoplasmic domain (544 to 976 residues) expressed in baculovirus expression system at 1 uM.
Test [16] has as its target High affinity nerve growth factor receptor (Homo sapiens) (UniProt P04629). In words: Inhibition of human recombinant His-tagged NTRK1 cytoplasmic domain (441 to 796 residues) expressed in baculovirus expression system at 1 uM.
The target of test [17] is Platelet-derived growth factor receptor alpha (Homo sapiens) (UniProt P16234). In words: Inhibition of human recombinant GST-tagged PDGFRalpha cytoplasmic domain (550 to 1089 residues) expressed in baculovirus expression system at 1 uM.
Test [18] addresses Platelet-derived growth factor receptor beta (Homo sapiens) (UniProt P09619). Nature of the test: Inhibition of human recombinant His-tagged PDGFRbeta cytoplasmic domain (558 to 1106 residues) expressed in baculovirus expression system at 1 uM.
In test [19] the target is Phosphatidylinositol 4-phosphate 3-kinase C2 domain-containing subunit alpha (Homo sapiens) (UniProt O00443). Nature of the test: Inhibition of human recombinant N-terminal GST-tagged PIK3C2A catalytic domain expressed in baculovirus expression system at 1 uM.
Test [20] concerns the target Phosphatidylinositol 4-phosphate 3-kinase C2 domain-containing subunit beta (Homo sapiens) (UniProt O00750). Nature of the test: Inhibition of human recombinant N-terminal GST-tagged PIK3C2B (155 to 1383 residues) catalytic domain expressed in baculovirus expression system at 1 uM.
The target in test [21] is Rho-associated protein kinase 1 (Homo sapiens) (UniProt Q13464). Nature of the test: Inhibition of human recombinant GST-tagged ROCK1 catalytic domain (1 to 535 residues) expressed in baculovirus expression system at 1 uM.
The target of test [22] is Proto-oncogene tyrosine-protein kinase receptor Ret (Homo sapiens) (UniProt P07949). Nature of the test: Inhibition of human recombinant GST-tagged RET cytoplasmic domain (658 to 1114 residues) expressed in baculovirus expression system at 1 uM.
For test [23], the target named is Rho-associated protein kinase 2 (Homo sapiens) (UniProt O75116). Nature of the test: Inhibition of human recombinant N-terminal GST-tagged ROCK2 catalytic domain (1 to 552 residues) expressed in baculovirus expression system at 1 uM.
For test [24], the target named is Angiopoietin-1 receptor (Homo sapiens) (UniProt Q02763). Nature of the test: Inhibition of human recombinant GST-tagged TEK cytoplasmic domain (817 to 1101 residues) expressed in baculovirus expression system at 1 uM.
Test [25] has as its target Dual specificity protein kinase TTK (Homo sapiens) (UniProt P33981). Nature of the test: Inhibition of human recombinant full-length GST-tagged TTK expressed in baculovirus expression system at 1 uM.

T1 sequence (Q96GD4 whole entry): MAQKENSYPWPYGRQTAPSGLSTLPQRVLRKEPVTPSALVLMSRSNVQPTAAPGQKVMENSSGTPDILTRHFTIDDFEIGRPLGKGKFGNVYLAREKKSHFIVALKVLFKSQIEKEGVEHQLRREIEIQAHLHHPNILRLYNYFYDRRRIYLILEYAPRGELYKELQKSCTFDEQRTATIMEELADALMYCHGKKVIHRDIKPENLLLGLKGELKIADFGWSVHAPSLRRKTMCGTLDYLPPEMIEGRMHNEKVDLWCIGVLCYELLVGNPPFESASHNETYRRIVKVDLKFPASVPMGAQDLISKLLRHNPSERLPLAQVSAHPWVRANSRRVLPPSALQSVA
Chain of High affinity nerve growth factor receptor (Homo sapiens) (P04629 33-796 limits assumed): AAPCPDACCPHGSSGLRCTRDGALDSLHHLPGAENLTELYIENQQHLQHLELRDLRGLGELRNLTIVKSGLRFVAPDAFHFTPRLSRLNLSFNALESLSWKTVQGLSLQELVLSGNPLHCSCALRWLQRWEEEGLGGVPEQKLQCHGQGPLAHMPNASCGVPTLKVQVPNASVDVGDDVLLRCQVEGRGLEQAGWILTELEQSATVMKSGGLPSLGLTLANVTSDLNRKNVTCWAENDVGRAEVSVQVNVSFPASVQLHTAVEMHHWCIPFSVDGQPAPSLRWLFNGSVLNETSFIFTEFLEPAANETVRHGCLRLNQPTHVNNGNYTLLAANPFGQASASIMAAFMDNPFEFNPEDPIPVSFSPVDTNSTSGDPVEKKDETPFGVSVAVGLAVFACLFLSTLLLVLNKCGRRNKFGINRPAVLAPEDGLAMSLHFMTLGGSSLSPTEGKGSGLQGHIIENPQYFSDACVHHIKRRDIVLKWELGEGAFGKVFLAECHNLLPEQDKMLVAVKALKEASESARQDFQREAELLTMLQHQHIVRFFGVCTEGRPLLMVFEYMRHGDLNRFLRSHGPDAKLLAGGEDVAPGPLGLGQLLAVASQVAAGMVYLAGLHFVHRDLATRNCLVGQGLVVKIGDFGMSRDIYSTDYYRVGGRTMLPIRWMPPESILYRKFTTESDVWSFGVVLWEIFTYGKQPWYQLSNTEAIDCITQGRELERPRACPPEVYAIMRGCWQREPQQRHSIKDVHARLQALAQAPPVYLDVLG
Chain of Vascular endothelial growth factor receptor 2 (P35968 whole entry, the tested form may be a part): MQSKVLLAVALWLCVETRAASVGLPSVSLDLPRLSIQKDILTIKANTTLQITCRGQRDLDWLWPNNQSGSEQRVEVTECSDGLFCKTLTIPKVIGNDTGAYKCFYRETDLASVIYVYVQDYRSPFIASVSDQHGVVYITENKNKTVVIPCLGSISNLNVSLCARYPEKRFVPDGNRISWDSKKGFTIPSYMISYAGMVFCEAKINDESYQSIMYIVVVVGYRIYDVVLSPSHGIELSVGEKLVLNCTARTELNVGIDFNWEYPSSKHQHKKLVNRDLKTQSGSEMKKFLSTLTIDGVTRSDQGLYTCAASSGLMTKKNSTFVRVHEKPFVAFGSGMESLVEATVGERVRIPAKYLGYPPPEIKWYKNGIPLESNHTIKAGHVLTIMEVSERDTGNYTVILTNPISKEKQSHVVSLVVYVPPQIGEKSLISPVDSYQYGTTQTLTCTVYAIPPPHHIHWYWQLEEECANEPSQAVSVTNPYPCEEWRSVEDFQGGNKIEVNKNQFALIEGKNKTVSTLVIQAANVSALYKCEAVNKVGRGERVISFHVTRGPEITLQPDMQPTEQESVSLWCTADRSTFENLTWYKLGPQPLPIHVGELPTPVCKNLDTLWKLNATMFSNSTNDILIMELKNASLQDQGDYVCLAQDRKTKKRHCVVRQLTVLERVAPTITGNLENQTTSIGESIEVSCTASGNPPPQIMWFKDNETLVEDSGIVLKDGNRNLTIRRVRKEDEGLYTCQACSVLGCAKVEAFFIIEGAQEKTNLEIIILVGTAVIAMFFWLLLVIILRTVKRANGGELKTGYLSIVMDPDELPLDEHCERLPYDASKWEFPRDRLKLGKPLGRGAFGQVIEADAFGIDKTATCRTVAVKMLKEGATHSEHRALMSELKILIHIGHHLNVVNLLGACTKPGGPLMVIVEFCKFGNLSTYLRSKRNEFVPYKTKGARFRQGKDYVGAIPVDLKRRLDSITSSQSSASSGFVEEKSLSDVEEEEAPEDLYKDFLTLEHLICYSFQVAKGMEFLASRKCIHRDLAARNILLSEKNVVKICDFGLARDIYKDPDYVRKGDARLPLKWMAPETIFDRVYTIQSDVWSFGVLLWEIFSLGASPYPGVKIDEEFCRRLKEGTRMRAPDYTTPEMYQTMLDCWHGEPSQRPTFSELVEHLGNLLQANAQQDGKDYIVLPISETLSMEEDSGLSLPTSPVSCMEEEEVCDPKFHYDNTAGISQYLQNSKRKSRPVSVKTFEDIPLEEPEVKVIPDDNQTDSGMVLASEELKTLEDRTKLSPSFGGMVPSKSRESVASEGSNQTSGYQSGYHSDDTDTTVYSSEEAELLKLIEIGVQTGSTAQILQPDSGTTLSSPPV
Chain of Proto-oncogene tyrosine-protein kinase receptor Ret (Homo sapiens) (P07949 whole entry, the tested form may be a part): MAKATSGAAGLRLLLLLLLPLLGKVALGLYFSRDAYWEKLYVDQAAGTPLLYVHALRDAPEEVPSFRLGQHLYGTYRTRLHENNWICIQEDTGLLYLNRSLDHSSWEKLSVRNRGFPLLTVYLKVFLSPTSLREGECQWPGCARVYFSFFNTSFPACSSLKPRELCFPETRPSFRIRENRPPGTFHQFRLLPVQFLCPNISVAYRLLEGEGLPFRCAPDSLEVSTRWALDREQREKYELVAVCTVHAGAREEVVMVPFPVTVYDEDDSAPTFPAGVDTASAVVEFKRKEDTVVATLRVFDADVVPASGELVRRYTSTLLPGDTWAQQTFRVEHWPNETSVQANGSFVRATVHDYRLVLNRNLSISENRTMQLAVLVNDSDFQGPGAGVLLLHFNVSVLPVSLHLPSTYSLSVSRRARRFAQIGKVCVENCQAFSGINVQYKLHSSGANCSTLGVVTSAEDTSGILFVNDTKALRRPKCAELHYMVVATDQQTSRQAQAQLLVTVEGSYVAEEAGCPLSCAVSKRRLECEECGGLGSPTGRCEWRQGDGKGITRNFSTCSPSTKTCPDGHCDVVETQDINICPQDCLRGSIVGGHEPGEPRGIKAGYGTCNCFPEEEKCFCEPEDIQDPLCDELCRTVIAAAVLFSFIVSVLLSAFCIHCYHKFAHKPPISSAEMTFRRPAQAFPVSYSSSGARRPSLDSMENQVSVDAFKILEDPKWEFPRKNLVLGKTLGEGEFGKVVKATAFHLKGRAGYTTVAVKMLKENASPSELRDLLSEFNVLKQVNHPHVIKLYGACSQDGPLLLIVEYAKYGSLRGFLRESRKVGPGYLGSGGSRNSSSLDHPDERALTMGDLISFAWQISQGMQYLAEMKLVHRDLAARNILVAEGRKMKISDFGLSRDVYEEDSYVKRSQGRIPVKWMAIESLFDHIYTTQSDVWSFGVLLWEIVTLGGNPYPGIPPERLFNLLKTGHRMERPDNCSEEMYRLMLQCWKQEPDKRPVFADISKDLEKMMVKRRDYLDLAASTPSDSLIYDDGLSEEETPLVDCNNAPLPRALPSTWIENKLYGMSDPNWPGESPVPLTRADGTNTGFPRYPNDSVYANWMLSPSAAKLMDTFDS
Chain of Serine/threonine-protein kinase Chk2 (Homo sapiens) (O96017 whole entry, the tested form may be a part): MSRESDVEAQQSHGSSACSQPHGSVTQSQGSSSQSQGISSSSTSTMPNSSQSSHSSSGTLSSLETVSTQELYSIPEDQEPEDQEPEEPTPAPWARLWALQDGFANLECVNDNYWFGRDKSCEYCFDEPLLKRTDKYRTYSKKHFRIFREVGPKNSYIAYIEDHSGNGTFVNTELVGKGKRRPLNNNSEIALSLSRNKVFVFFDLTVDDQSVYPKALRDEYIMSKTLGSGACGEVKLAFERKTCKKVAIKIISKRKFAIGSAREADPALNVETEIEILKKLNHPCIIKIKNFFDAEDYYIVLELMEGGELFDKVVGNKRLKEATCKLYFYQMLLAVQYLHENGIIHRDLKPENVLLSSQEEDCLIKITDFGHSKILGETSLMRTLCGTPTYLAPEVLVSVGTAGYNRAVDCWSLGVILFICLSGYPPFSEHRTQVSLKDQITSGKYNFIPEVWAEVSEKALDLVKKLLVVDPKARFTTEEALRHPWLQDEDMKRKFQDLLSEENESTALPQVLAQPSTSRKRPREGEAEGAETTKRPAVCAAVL
Chain of Dual specificity protein kinase TTK (Homo sapiens) (P33981 whole entry): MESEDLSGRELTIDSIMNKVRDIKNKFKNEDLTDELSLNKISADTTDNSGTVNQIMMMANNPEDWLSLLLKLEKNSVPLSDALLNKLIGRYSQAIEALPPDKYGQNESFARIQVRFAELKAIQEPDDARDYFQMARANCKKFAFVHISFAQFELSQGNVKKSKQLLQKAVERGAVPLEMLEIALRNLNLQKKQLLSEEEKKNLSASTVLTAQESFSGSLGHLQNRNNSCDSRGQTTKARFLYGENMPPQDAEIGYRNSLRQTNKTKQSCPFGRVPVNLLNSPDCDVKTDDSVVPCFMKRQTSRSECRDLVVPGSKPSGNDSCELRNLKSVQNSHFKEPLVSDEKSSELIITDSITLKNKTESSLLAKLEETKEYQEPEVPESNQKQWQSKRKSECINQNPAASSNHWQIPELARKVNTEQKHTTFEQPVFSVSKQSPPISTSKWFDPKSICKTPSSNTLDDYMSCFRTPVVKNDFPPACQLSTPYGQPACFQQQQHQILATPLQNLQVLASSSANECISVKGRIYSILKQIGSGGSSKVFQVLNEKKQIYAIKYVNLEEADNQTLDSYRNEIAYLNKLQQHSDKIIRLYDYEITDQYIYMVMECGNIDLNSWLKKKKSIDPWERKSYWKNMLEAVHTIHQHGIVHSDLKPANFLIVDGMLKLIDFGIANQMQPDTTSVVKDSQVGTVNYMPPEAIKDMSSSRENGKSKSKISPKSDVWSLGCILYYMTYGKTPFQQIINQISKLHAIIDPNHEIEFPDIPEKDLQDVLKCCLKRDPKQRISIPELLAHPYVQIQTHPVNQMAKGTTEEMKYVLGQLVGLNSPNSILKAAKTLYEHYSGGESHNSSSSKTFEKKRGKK

For orientation: GI50 means the concentration at which growth is held to half of that of the control. Lower therefore signals more potent growth inhibition. One may read the IC50 as the midpoint of a concentration-inhibition curve. As to `Cc1ccc(S(=O)(=O)Nc2ccc3[nH]nc(-c4cccc(NC(=O)/C=C\C(=O)O)c4)c3c2)cc1`, the GI50 in test [1] was more than 20000 nM. The IC50 on Aurora kinase B [2] came to 32 nM.
For `CC#CC(=O)Nc1cccc(-c2n[nH]c3ccc(NS(=O)(=O)c4ccccc4)cc23)c1`, in that order: 3600 nM and more than 1000 nM.
Take `O=C(O)/C=C\C(=O)Nc1cccc(-c2n[nH]c3ccc(NS(=O)(=O)c4ccc(-c5ccccc5)cc4)cc23)c1`: in test [1], the concentration for 50% growth inhibition (GI50) was more than 20000 nM.
Take `O=C(O)[C@]1(Cc2cccc(Nc3nccs3)n2)CC[C@@H](Oc2cccc(Cl)c2F)CC1` [MK-5108]: the IC50 at Aurora kinase C came out at 12 nM.
In the case of `O=C(O)CCC(=O)Nc1cccc(-c2n[nH]c3ccc(NS(=O)(=O)c4ccccc4)cc23)c1`, in test [1], the concentration for 50% growth inhibition (GI50) is more than 20000 nM. The IC50 against Aurora kinase B [2] is 28 nM.
For `O=C(O)/C=C\C(=O)Nc1cccc(-c2n[nH]c3ccc(NS(=O)(=O)c4ccc([N+](=O)[O-])cc4)cc23)c1`, the GI50 in test [1] was more than 20000 nM. Moreover, half-maximal inhibition against Aurora kinase B [2] (IC50) was put at 26 nM.
In turn, `COC(=O)CCC(=O)Nc1cccc(-c2n[nH]c3ccc(NS(=O)(=O)c4ccccc4)cc23)c1` showed a GI50 in test [1] of 12000 nM. At Aurora kinase B [2], this molecule yielded a 50% inhibitory concentration (IC50) of 48 nM.
Molecule `CC(C)OC(=O)CCC(=O)Nc1cccc(-c2n[nH]c3ccc(NS(=O)(=O)c4ccccc4)cc23)c1` gave a GI50 in test [1] of more than 20000 nM. Further, the IC50 against Aurora kinase B [2] came to 220 nM.
For `O=C(O)/C=C\C(=O)Nc1cccc(-c2n[nH]c3ccc(NS(=O)(=O)c4ccc(F)cc4)cc23)c1`, in that order: more than 20000 nM and 30 nM.
For `NC(=O)CCC(=O)Nc1cccc(-c2n[nH]c3ccc(NS(=O)(=O)c4ccccc4)cc23)c1`, in that order: more than 20000 nM and 49 nM.
Molecule `O=C(O)/C=C/C(=O)Nc1cccc(-c2n[nH]c3ccc(NS(=O)(=O)c4ccccc4)cc23)c1` displayed a GI50 in test [1] of more than 20000 nM.
In test [1], `COc1ccc(S(=O)(=O)Nc2ccc3[nH]nc(-c4cccc(NC(=O)/C=C\C(=O)O)c4)c3c2)cc1` yielded a GI50 of more than 20000 nM. On Aurora kinase B [2], this molecule gave an IC50 of 31 nM.
Consider `CC(C)(C)c1ccc(S(=O)(=O)Nc2ccc3[nH]nc(-c4cccc(NC(=O)/C=C\C(=O)O)c4)c3c2)cc1`, for which, in test [1], the GI50 is more than 20000 nM.
Usually inhibition stands for the relative decrease from the control value, in per cent. In turn, `O=C(O)/C=C\C(=O)Nc1cccc(-c2n[nH]c3ccc(NS(=O)(=O)c4ccccc4)cc23)c1` had a GI50 in test [1] of more than 20000 nM. In addition, the inhibition in test [3] was determined as 31%; on Aurora kinase B [4], 89%; in test [5], 94%; in [6], 21%; in test [7] it was 17%; in [8], 16%. For the same molecule, the inhibition in test [9] amounted to 8%; in test [10] it was 1%; in test [11], 85%; in test [12], 64%; in test [13], 39%; in [14], 48%. In addition, the inhibition in [15] was -4%; in [16] it was 58%; in test [17], 24%; in test [18] it was -2%; in [19], 1%; in test [20], 20%. Also, the inhibition in [21] amounted to 10%; in test [22], 61%; in test [23], 8%; in test [24], 48%; in test [25] it was 93%. The molecule also yielded an IC50 on Aurora kinase B [2] of 15 nM.
In test [1], `CCOC(=O)CCC(=O)Nc1cccc(-c2n[nH]c3ccc(NS(=O)(=O)c4ccccc4)cc23)c1` registered a GI50 of 1900 nM. This molecule also returned an IC50 at Aurora kinase B [2] of 64 nM.

The values above are taken from ChEMBL document CHEMBL3871274 (Eur J Med Chem, 2016).
